Test results as given in patent publication US20240108702A1, “Use Of Naturally Occurring Cyclic Peptides For Treatment Of SARS-COV-2 Infection” (The University of Southern California, priority 2021, published 2024).
Where a SMILES comes first, the peptide text is derived from it. Bridges are numbered along the chain shown (N, C = ends).

Legend:
[1] = Single i.v. bolus PK in a vervet monkey (pilot safety study); format: in vivo, vervet/African green monkey (Chlorocebus aethiops sabaeus); conditions: single 3 mg/kg i.v. bolus
Protocol: Vervet monkey studies: As a pilot safety study, a single dose of Peptide 1 (SEQ ID NO. 1) at 3 mg/kg was administered to an adult male vervet/African green monkey (Chlorocebus aethiops sabaeus) via i.v. bolus. Serial blood samples were collected at 0.5, 1, 4, 8, 24, 48, 72, 96, 120, and 192 h post-administration.
Bioanalytical analysis: Clarified plasma samples from mice were directly diluted into 5% formic acid/5% acetonitrile. Quantitative analysis of Peptide 1 (SEQ ID NO. 1) was performed by LC-MS/MS with reverse-phase liquid chromatography (XBridge™ BEH phenyl 3.5 μm 3×100 mm column, Waters #186003328) on an Acquity™ H-Class UPLC (Waters) coupled to a Xevo™ TQ-S tandem electrospray mass spectrometry running MassLynx™ V4.1 (Waters). Quantitative mass spectroscopy was performed by multiple-reaction monitoring transition 417.32>517.21, with the area under the curve determined by TargetLynx™ (Waters). A synthetic theta defensin-like peptide was used as an internal standard (IS). The lower limit of quantification (LLOQ) of the assay was 1 ng/mL. Intra- and inter-assay precision (percent coefficient of variation [CV]) was ≤3%, and intra and interassay accuracy (% relative error) was ≤5%. Plasma Peptide 1 (SEQ ID NO. 1) concentration analyses for rats and cynomolgus monkey studies were performed at MicroConstants (San Diego, CA) by HPLC using a Mac-Mod™ Analytical ACE C4 column. The mobile phase was nebulized using heated nitrogen in Z-Spray source/interface set to electrospray positive ionization mode, and the compound was detected using MS/MS (LLOQ=10.0 ng/mL). Details of the method are summarized in the MicroConstants method No. MN20038. Clarified plasma samples from a serially sampled vervet were quantified by ultra-performance liquid chromatography Waters Acquity H-Class UPLC. […] Peptide 1 (SEQ ID NO. 1) peak and mass confirmation was performed on post PDA eluent using a Micromass Quattro Ultima™ mass spectrometer with MassLynx™ 4.1 (Waters). The lower limit of quantitation (LLOQ) ranged from 10-30 ng/mL (determined by sample background) to an upper limit of 50 ug/mL. RTD-2 (10 ug/mL) was used as an internal standard. Intra- and interassay precision (% coefficient of variation [CV]) was ≤3%, and intra and interassay accuracy (% relative error) was ≤5%.
Pharmacokinetic analysis: Non-compartmental analysis (NCA) was performed using Phoenix WinNonlin™ (version 8.3.1, Certara USA, Inc.; Princeton NJ) to determine the PK parameters in mice, rats, cynomolgus monkeys, and the vervet. Nominal sampling times were used in the analysis, and data below the lower limit of quantification of the assay were excluded from the analysis. The maximum plasma concentration (Cmax) was determined from visual inspection of the data. In addition, the following parameters were calculated: terminal elimination rate constant (λz), area under the curve extrapolated to infinity (AUC0-∞), area under the curve to dosing interval (AUCτ), mean residence time (MRT), clearance (CL), and volume of distribution at steady state (Vss). AUC was calculated using the linear up, log down method, and the λz was calculated using up to the last four data points of the log-linear terminal phase of the concentration-time profile. Due to sparsely sampled data in mice and rats, the sparse sampling calculation methodology in Phoenix WinNonlin™ was used, which generated a single estimate without standard error for all parameters, except for Cmax. For rats and cynomolgus monkeys, all parameters were calculated using sampling times relative to the beginning of the i.v. infusion.

in vivo = conditions: both, Sprague-Dawley, rat, iv

For `CC[C@H](C)[C@@H]1NC(=O)[C@@H]2CSSC[C@H](NC(=O)[C@H](CCCNC(=N)N)NC(=O)[C@@H]3CSSC[C@H](NC1=O)C(=O)N[C@@H]([C@@H](C)O)C(=O)N[C@@H](CCCNC(=N)N)C(=O)NCC(=O)N[C@@H](Cc1ccccc1)C(=O)N3)C(=O)N[C@@H](CC(C)C)C(=O)N[C@H]1CSSC[C@H](NC(=O)[C@H](C(C)C)NC(=O)CNC(=O)[C@H](CCCNC(=N)N)NC(=O)[C@H](CCCNC(=N)N)NC1=O)C(=O)N[C@@H](CCCNC(=N)N)C(=O)N2` [Peptide 1] (cyclo(GFCRCLCRRGVCRCICTR); disulfide 3-16, 5-14, 7-12), the AUC ([1]; male, monkey, plasma, iv) was 21900 ng·h/mL, the AUC(0-inf) ([1]; male, monkey, plasma, iv) was 22100 ng·h/mL and the Cmax ([1]; male, monkey, plasma, iv) was 5190 ng/mL. It also gave an MRT ([1]; male, monkey, plasma, iv) of 4.71 h, a clearance ([1]; male, monkey, plasma, iv) of 2.27 mL/min/kg and a Vd ([1]; male, monkey, plasma, iv, read-out: Vss) of 0.639 L/kg. For the same compound, the λz [1] was 0.204 h⁻¹, the mortality (cynomolgus monkeys, 10-day repeat dose, any dose level) was “no mortality or unscheduled euthanasia occurred” and the “urinalysis, ophthalmologic assessments, electrocardiogram” value (cynomolgus monkeys, any dose level, data not shown) was “no treatment-related changes”. For the same compound, the food consumption (cynomolgus, females at 10 mg/kg/day and both sexes at 15 mg/kg/day, non-adverse) was “Treatment-related decrease in food consumption”, the “microscopic findings, lung” value (cynomolgus, males ≥10 mg/kg/day and females ≥5 mg/kg/day, Day 11, resolved by end of recovery) was “minimal to mild intravascular thrombosis (thromboembolism)” and the tolerability (male and female cynomolgus monkeys, doses up to 15 mg/kg) was “well tolerated”. For the same compound, the AUC (in vivo; 5 mg/kg) was 15000 ng·h/mL, the AUC(0-inf) (in vivo; 5 mg/kg) was 15900 ng·h/mL and the Cmax (in vivo; 5 mg/kg) was 7470 ng/mL. It also gave an MRT (in vivo; 5 mg/kg) of 4.37 h, a Vd (in vivo; 5 mg/kg) of 1.46 L/kg and a clearance (in vivo; 5 mg/kg) of 5.57 mL/min/kg. The AUC (in vivo; 5 mg/kg/day) was 12500 ng·h/mL, the AUC(0-inf) (in vivo; 5 mg/kg/day) was 12700 ng·h/mL and the Cmax (in vivo; 5 mg/kg/day) was 10100 ng/mL. For the same compound, the MRT (in vivo; 5 mg/kg/day) was 2.92 h, the Vd (in vivo; 5 mg/kg/day) was 1.17 L/kg and the clearance (in vivo; 5 mg/kg/day) was 6.68 mL/min/kg. The AUC (in vivo; 10 mg/kg) was 41700 ng·h/mL, the AUC(0-inf) (in vivo; 10 mg/kg) was 42100 ng·h/mL and the Cmax (in vivo; 10 mg/kg) was 27500 ng/mL. The MRT (in vivo; 10 mg/kg) was 2.88 h, the Vd (in vivo; 10 mg/kg) was 0.691 L/kg and the clearance (in vivo; 10 mg/kg) was 4 mL/min/kg. For the same compound, the AUC (in vivo; 10 mg/kg/day) was 34100 ng·h/mL, the AUC(0-inf) (in vivo; 10 mg/kg/day) was 34700 ng·h/mL and the Cmax (in vivo; 10 mg/kg/day) was 21800 ng/mL. It also gave an MRT (in vivo; 10 mg/kg/day) of 3.45 h, a Vd (in vivo; 10 mg/kg/day) of 1.01 L/kg and a clearance (in vivo; 10 mg/kg/day) of 4.88 mL/min/kg. It also gave an AUC (in vivo; 20 mg/kg) of 127000 ng·h/mL, an AUC(0-inf) (in vivo; 20 mg/kg) of 127000 ng·h/mL and a Cmax (in vivo; 20 mg/kg) of 35400 ng/mL. For the same compound, the MRT (in vivo; 20 mg/kg) was 4.81 h, the Vd (in vivo; 20 mg/kg) was 0.758 L/kg and the clearance (in vivo; 20 mg/kg) was 2.62 mL/min/kg.
